Legend:
[1] = Solubility of the compound in FeSSIF at pH 5.0; assay type: ADME
[2] = Solubility of compound in FaSSIF at pH 6.5; assay type: ADME
[3] = Metabolic stability in rat liver microsomes assessed as half life at 0.5 uM in presence of NADPH by LC-MS/MS analysis; assay type: ADME, Microsome
[4] = Metabolic stability in human liver microsomes assessed as half life at 0.5 uM in presence of NADPH by LC-MS/MS analysis; assay type: ADME, Microsome
[5] = test system: Human immunodeficiency virus 1; test: Antiviral activity against wild type HIV-1 NLRepRlucP373S harboring R361K/V362I/L363M mutant infected in human MT2 cells assessed as inhibition of viral growth measured after 4 to 5 days by Dual luciferase reporter assay; assay type: functional, organism-based; conditions: Human immunodeficiency virus 1, NLRepRlucP373S
[6] = test system: Human immunodeficiency virus 1; test: Antiviral activity against wild type HIV-1 NLRepRlucP373S harboring deltaV370 mutant infected in human MT2 cells assessed as inhibition of viral growth measured after 4 to 5 days by Dual luciferase reporter assay; assay type: functional, organism-based; conditions: Human immunodeficiency virus 1, NLRepRlucP373S
[7] = Volume of distribution at steady state in Sprague-Dawley rat at 1 mg/kg, iv by LC-MS/MS analysis; assay type: ADME, organism-based; conditions: in vivo, read-out: Vdss
[8] = test system: Human immunodeficiency virus 1; test: Antiviral activity against wild type HIV-1 NLRepRlucP373S harboring T332S/V362I/prR41G mutant infected in human MT2 cells assessed as inhibition of viral growth measured after 4 to 5 days by Dual luciferase reporter assay; assay type: functional, organism-based; conditions: Human immunodeficiency virus 1, NLRepRlucP373S
[9] = MRT in Sprague-Dawley rat at 1 mg/kg, iv by LC-MS/MS analysis; assay type: ADME, organism-based; conditions: in vivo
[10] = Fold resistance, ratio of EC50 for antiviral activity against wild type HIV-1 NLRepRlucP373S infected in human MT2 cells assessed as inhibition of viral growth in presence of 10% FBS and 40% human serum supplemented with 27mg/mL of human serum albumin to EC50 for antiviral activity against wild type HIV-1 NLRepRlucP373S infected in human MT2 cells assessed as inhibition of viral growth; assay type: functional, Human immunodeficiency virus 1
[11] = molecular target: Albumin (Homo sapiens, UniProt P02768); test: Protein binding in human serum albumin assessed as fraction bound at 53 nM incubated for 1 hrs by ultracentrifugation method; assay type: ADME, cell-free; conditions: read-out: PPB (converted)
[12] = Cytotoxicity against human MT2 cells assessed as reduction in cell viability; assay type: toxicity, cell-based
[13] = test system: Human immunodeficiency virus 1; test: Antiviral activity against wild type HIV-1 NLRepRlucP373S infected in human MT2 cells assessed as inhibition of viral growth measured after 4 to 5 days by Dual luciferase reporter assay; assay type: functional, organism-based; conditions: Human immunodeficiency virus 1, NLRepRlucP373S
[14] = Metabolic stability in dog liver microsomes assessed as half life at 0.5 uM in presence of NADPH by LC-MS/MS analysis; assay type: ADME, Canis lupus familiaris, Microsome
[15] = Clearance in Sprague-Dawley rat at 1 mg/kg, iv by LC-MS/MS analysis; assay type: ADME, organism-based; conditions: in vivo
[16] = test system: Human immunodeficiency virus 1; test: Antiviral activity against wild type HIV-1 NLRepRlucP373S harboring A326T/V362I/V370A mutant infected in human MT2 cells assessed as inhibition of viral growth measured after 4 to 5 days by Dual luciferase reporter assay; assay type: functional, organism-based; conditions: Human immunodeficiency virus 1, NLRepRlucP373S
[17] = test system: Human immunodeficiency virus 1; test: Antiviral activity against wild type HIV-1 NLRepRlucP373S infected in human MT2 cells assessed as inhibition of viral growth measured after 4 to 5 days in presence of 10% FBS and 40% human serum supplemented with 27 mg/mL of human serum albumin by Dual luciferase reporter assay; assay type: functional, organism-based; conditions: Human immunodeficiency virus 1, NLRepRlucP373S
[18] = test system: Human immunodeficiency virus 1; test: Antiviral activity against wild type HIV-1 NLRepRlucP373S harboring V362I/V370A mutant infected in human MT2 cells assessed as inhibition of viral growth measured after 4 to 5 days by Dual luciferase reporter assay; assay type: functional, organism-based; conditions: Human immunodeficiency virus 1, NLRepRlucP373S

Chain of Albumin (P02768 whole entry): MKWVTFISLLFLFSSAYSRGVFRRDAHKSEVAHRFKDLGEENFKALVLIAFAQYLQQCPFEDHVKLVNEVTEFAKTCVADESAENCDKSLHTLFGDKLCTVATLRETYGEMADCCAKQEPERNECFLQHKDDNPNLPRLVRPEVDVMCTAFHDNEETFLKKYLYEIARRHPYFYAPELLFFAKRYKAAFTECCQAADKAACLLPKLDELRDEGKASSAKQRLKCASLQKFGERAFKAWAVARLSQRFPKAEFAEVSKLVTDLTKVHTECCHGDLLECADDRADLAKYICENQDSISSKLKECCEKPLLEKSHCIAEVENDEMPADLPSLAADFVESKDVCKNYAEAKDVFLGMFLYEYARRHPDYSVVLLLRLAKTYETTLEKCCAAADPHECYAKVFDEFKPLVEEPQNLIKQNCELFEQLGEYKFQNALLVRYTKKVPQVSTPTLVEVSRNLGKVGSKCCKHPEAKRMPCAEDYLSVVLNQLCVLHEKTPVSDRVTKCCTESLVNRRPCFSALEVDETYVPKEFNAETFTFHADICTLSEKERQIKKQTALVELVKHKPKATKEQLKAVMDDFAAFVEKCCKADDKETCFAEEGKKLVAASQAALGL

Compound	EC50 [8] [nM]	fold change (FC) [10]	CC50 [12] [nM]	EC50 [13] [nM]	EC50 [17] [nM]	other results
C=C(C)[C@@H]1CC[C@]2(NCCN3CCS(=O)(=O)CC3)CC[C@]3(C)[C@H](CC[C@@H]4[C@@]5(C)CC=C(C6=CC[C@@](CF)(C(=O)O)CC6)C(C)(C)[C@@H]5CC[C@]43C)[C@@H]12.Cl.Cl	–	–	–	–	–	solubility [1]: 800 µM; solubility [2]: 310 µM
C=C(C)[C@@H]1CC[C@]2(NCCN3CCS(=O)(=O)CC3)CC[C@]3(C)[C@H](CC[C@@H]4[C@@]5(C)CC=C(C6=CC[C@@](CF)(C(=O)O)CC6)C(C)(C)[C@@H]5CC[C@]43C)[C@@H]12	7	4.6	15600	3	–	half-life at 0.5 µM [3]: 1.45 h; half-life at 0.5 µM [4]: 1.83 h; EC50 [5]: 3 nM; EC50 [6]: 3 nM; Vd [7]: 1.8 L/kg; MRT [9]: 4.9 h; fraction unbound at 1 h, 0.053 µM [11]: 0.14; half-life at 0.5 µM [14]: 1.47 h; clearance [15]: 6.5 mL/min/kg; EC50 [16]: 26 nM
C=C(C)[C@@H]1CC[C@]2(NCCCC(C)(C)O)CC[C@]3(C)[C@H](CC[C@@H]4[C@@]5(C)CC=C(C6=CC[C@](CF)(C(=O)O)CC6)C(C)(C)[C@@H]5CC[C@]43C)[C@@H]12	44	6.3	7500	14	84	–
C=C(C)[C@@H]1CC[C@]2(NCCC3CCOCC3)CC[C@]3(C)[C@H](CC[C@@H]4[C@@]5(C)CC=C(C6=CC[C@](CF)(C(=O)O)CC6)C(C)(C)[C@@H]5CC[C@]43C)[C@@H]12	160	33	13000	30	980	–
C=C(C)[C@@H]1CC[C@]2(NCC[C@]3(O)CC[C@@](C)(O)CC3)CC[C@]3(C)[C@H](CC[C@@H]4[C@@]5(C)CC=C(C6=CC[C@](CF)(C(=O)O)CC6)C(C)(C)[C@@H]5CC[C@]43C)[C@@H]12	6.1	9.8	18000	1.7	16	–
C=C(C)[C@@H]1CC[C@]2(NCCC(C)C)CC[C@]3(C)[C@H](CC[C@@H]4[C@@]5(C)CC=C(C6=CC[C@](CF)(C(=O)O)CC6)C(C)(C)[C@@H]5CC[C@]43C)[C@@H]12	930	15	16000	120	1760	–
C=C(C)[C@@H]1CC[C@]2(NCCC3(O)CCN(S(C)(=O)=O)CC3)CC[C@]3(C)[C@H](CC[C@@H]4[C@@]5(C)CC=C(C6=CC[C@](CF)(C(=O)O)CC6)C(C)(C)[C@@H]5CC[C@]43C)[C@@H]12	8.3	73	23000	2.6	19	–
C=C(C)[C@@H]1CC[C@]2(NCCC3(O)CCOCC3)CC[C@]3(C)[C@H](CC[C@@H]4[C@@]5(C)CC=C(C6=CC[C@](CF)(C(=O)O)CC6)C(C)(C)[C@@H]5CC[C@]43C)[C@@H]12	8.2	15	9500	2	30	–
C=C(C)[C@@H]1CC[C@]2(NCCC3CCS(=O)(=O)CC3)CC[C@]3(C)[C@H](CC[C@@H]4[C@@]5(C)CC=C(C6=CC[C@](CF)(C(=O)O)CC6)C(C)(C)[C@@H]5CC[C@]43C)[C@@H]12	14	14	14000	3.9	54	–
C=C(C)[C@@H]1CC[C@]2(NCCC3(O)CCC3)CC[C@]3(C)[C@H](CC[C@@H]4[C@@]5(C)CC=C(C6=CC[C@](CF)(C(=O)O)CC6)C(C)(C)[C@@H]5CC[C@]43C)[C@@H]12	16	6.4	12000	5.6	36	–
C=C(C)[C@@H]1CC[C@]2(NCCN3CCN(S(C)(=O)=O)CC3)CC[C@]3(C)[C@H](CC[C@@H]4[C@@]5(C)CC=C(C6=CC[C@](CF)(C(=O)O)CC6)C(C)(C)[C@@H]5CC[C@]43C)[C@@H]12	5.7	9	11400	2	18	–
C=C(C)[C@@H]1CC[C@]2(NCCN3CCC(C)(O)CC3)CC[C@]3(C)[C@H](CC[C@@H]4[C@@]5(C)CC=C(C6=CC[C@](CF)(C(=O)O)CC6)C(C)(C)[C@@H]5CC[C@]43C)[C@@H]12	5.6	16	14000	1.2	19	–
C=C(C)[C@@H]1CC[C@]2(NCC[C@]3(O)CC[C@H](S(C)(=O)=O)CC3)CC[C@]3(C)[C@H](CC[C@@H]4[C@@]5(C)CC=C(C6=CC[C@](CF)(C(=O)O)CC6)C(C)(C)[C@@H]5CC[C@]43C)[C@@H]12	4.6	4.1	16000	1.5	5.9	–
C=C(C)[C@@H]1CC[C@]2(NCCC3(O)CCN(C(C)=O)CC3)CC[C@]3(C)[C@H](CC[C@@H]4[C@@]5(C)CC=C(C6=CC[C@](CF)(C(=O)O)CC6)C(C)(C)[C@@H]5CC[C@]43C)[C@@H]12	6.7	14	14000	1.7	24	–
C=C(C)[C@@H]1CC[C@]2(NCCC3(O)COC3)CC[C@]3(C)[C@H](CC[C@@H]4[C@@]5(C)CC=C(C6=CC[C@@](CF)(C(=O)O)CC6)C(C)(C)[C@@H]5CC[C@]43C)[C@@H]12	12	14	13000	1.9	27	–
C=C(C)[C@@H]1CC[C@]2(NCCC(C)(C)O)CC[C@]3(C)[C@H](CC[C@@H]4[C@@]5(C)CC=C(C6=CC[C@](CF)(C(=O)O)CC6)C(C)(C)[C@@H]5CC[C@]43C)[C@@H]12	8.3	14	8300	1.9	26	–
C=C(C)[C@@H]1CC[C@]2(NCC[C@]3(O)CC[C@](C)(O)CC3)CC[C@]3(C)[C@H](CC[C@@H]4[C@@]5(C)CC=C(C6=CC[C@@](CF)(C(=O)O)CC6)C(C)(C)[C@@H]5CC[C@]43C)[C@@H]12	9.2	4.6	11000	3	14	–
C=C(C)[C@@H]1CC[C@]2(NCC[C@]3(O)CC[C@@H](S(C)(=O)=O)CC3)CC[C@]3(C)[C@H](CC[C@@H]4[C@@]5(C)CC=C(C6=CC[C@@](CF)(C(=O)O)CC6)C(C)(C)[C@@H]5CC[C@]43C)[C@@H]12	6.5	13	17000	2.3	30	–
C=C(C)[C@@H]1CC[C@]2(NCC(C)(C)O)CC[C@]3(C)[C@H](CC[C@@H]4[C@@]5(C)CC=C(C6=CC[C@](CF)(C(=O)O)CC6)C(C)(C)[C@@H]5CC[C@]43C)[C@@H]12	50	9.7	8700	15	147	–
C=C(C)[C@@H]1CC[C@]2(NCCC3(O)CCS(=O)(=O)CC3)CC[C@]3(C)[C@H](CC[C@@H]4[C@@]5(C)CC=C(C6=CC[C@](CF)(C(=O)O)CC6)C(C)(C)[C@@H]5CC[C@]43C)[C@@H]12	7.7	83	14000	2.3	19	–
C=C(C)[C@@H]1CC[C@]2(NCCN3CCOCC3)CC[C@]3(C)[C@H](CC[C@@H]4[C@@]5(C)CC=C(C6=CC[C@](CF)(C(=O)O)CC6)C(C)(C)[C@@H]5CC[C@]43C)[C@@H]12	18	12	7700	4.5	53	–
C=C(C)[C@@H]1CC[C@]2(NCCN3CCS(=O)(=O)CC3)CC[C@]3(C)[C@H](CC[C@@H]4[C@@]5(C)CC=C(C6=CCC(CF)(C(=O)O)CC6)C(C)(C)[C@@H]5CC[C@]43C)[C@@H]12 (single isomer, unassigned)	–	3.3	–	–	–	–
C=C(C)[C@@H]1CC[C@]2(NCCN3CCS(=O)(=O)CC3)CC[C@]3(C)[C@H](CC[C@@H]4[C@@]5(C)CC=C(c6ccc(C(=O)O)cc6)C(C)(C)[C@@H]5CC[C@]43C)[C@@H]12 [BMS-955176]	700	2	13000	–	–	EC50 [18]: 3 nM; EC50 [6]: 6 nM

— ChEMBL document CHEMBL5236606, “Synthesis, Structure-Activity Relationships, and In Vivo Evaluation of Novel C-17 Amine Derivatives Based on GSK3640254 as HIV-1 Maturation Inhibitors with Broad Spectrum Activity” (J Med Chem, 2022)
